Usually IC50 stands for the point on the concentration scale where inhibition reaches its midpoint. A higher IC50 goes with lower potency. The EC50 is the concentration at which the effect is half-maximal.

For test [1], the target named is T1, human D2R/β-arrestin (Homo sapiens (Human), UniProt P14416). The experiment in a line: cell-based. Conditions: β-arrestin Antagonist, CHO-K1 cells expressing human D2R/β-arrestin; antagonist mode, quinpirole 130 nM.
Protocol: Cells were prepared for assays by growing cultures for up to 2 weeks (from about 6-20 passages). A vial of frozen cells was thawed in a water bath held at 37° C. The cells were then transferred into a 50 ml tube with 10 ml growth media. The vial was rinsed with growth media and the contents transferred to the 50 ml tube. The 50 ml tube was centrifuged at 1200 rpm for 5 minutes at room temperature. […] When the cells reached about 90% confluence (approximately 3 days between passages), the cells were passaged and used for either the agonist or antagonist assays as described below.
The cells were prepared for β-arrestin assays as described above. The assays were performed using a PathHunter® β-Arrestin Detecting Kit (DiscoveRX). The cells were grown on 225 mm dishes, then washed once with 1×PBS (Cellgro), followed by digestion with 2.5 ml 1× Detachment reagent (DRX 92-0009) for approximately 2 minutes.
In test [2] the target is T1, human D2R/β-arrestin. As to the kind of experiment: β-arrestin agonist assay (PathHunter). Type of test: cell-based. Conditions: CHO-K1 cells expressing human D2R/β-arrestin; agonist mode. On the procedure:
The detection reagent (9.6 μL, Buffer:Emerald II:Galactor-Star in a 19:5:1 ratio, i.e., 14.06 mL:3.7 mL:0.74 mL=18.5 mL) was then added to the agonist plates.

The target of test [3] is T1, human D2R/β-arrestin. The experiment in a line: Gi/cAMP agonist assay (Lance Ultra cAMP, forskolin). Type of test: cell-based. Conditions: CHO-K1 cells expressing human D2R/β-arrestin; agonist mode, 2.5 μM forskolin. As to the method: Eu-cAMP tracer solution (10 μl, PerkinElmer, 360 μl of Tracer in 17.64 ml kit buffer) and ULight-anti-cAMP solution (10 μl, 120 μL antibody in 17.88 ml kit buffer) was then added to each well.

In test [4] the target is T1, human D2R/β-arrestin. As to the kind of experiment: cell-based. The note with it: cAMP Antagonist, CHO-K1 cells expressing human D2R/β-arrestin; antagonist mode, 2.5 μM forskolin and 2.7 nM quinpirole.

Bounds are passed on as bounds.

T1 sequence (P14416 whole entry): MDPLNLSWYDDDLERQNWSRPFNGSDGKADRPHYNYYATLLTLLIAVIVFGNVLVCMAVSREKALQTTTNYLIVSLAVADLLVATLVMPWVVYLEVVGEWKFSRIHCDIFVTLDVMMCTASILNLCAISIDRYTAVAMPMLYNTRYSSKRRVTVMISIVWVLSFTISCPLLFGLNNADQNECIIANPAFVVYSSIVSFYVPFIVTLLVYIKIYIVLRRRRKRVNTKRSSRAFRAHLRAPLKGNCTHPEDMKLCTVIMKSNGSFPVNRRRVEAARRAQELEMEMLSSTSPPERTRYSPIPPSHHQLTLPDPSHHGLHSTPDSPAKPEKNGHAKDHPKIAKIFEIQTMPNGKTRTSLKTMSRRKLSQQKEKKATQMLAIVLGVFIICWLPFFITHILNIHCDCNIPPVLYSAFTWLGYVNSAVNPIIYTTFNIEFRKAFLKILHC

In the case of `CC1(Oc2ccccc2)CCN(CCCc2ccccc2C(F)(F)F)CC1` [Compound 118, 4-Methyl-4-phenoxy-1-(3-(2-(trifluoromethyl)phenyl)propyl)piperidine], the IC50 on human D2R/β-arrestin [1] and against human D2R/β-arrestin [4] was 0.1 to 1 µM each time. The EC50 at human D2R/β-arrestin [2] was greater than 30 µM; on human D2R/β-arrestin [3] it was less than 0.1 µM.
As to `CC1(C)OC(c2ccccc2)C2(CCN(CCOc3ccccc3C(F)(F)F)CC2)O1` (stereo not drawn) [Compound 119], the IC50 on human D2R/β-arrestin [1] and on human D2R/β-arrestin [4] was 1 to 10 µM throughout. Also, the EC50 on human D2R/β-arrestin [2] and on human D2R/β-arrestin [3] was greater than 30 µM in each case.
Turning to `CC1(Oc2ccc(Cl)cc2)CCN(CCCCOc2ccccc2)CC1` [Compound 120, 4-(4-chlorophenoxy)-4-methyl-1-(4-phenoxybutyl)piperidine], the results for the IC50 on human D2R/β-arrestin [1] and on human D2R/β-arrestin [4] were 10 to 30 µM and greater than 30 µM, respectively. Moreover, the values for the EC50 at human D2R/β-arrestin [2] and at human D2R/β-arrestin [3] were greater than 30 µM and 1 to 10 µM, respectively.
`CC1(Oc2ccccc2)CCN(CCCCOc2ccccc2)CC1` [Compound 121, 4-Methyl-4-phenoxy-1-(4-phenoxybutyl)piperidine]: the IC50 on human D2R/β-arrestin [1] is 1 to 10 µM; against human D2R/β-arrestin [4], greater than 30 µM. Further, the EC50 at human D2R/β-arrestin [2] is 0.1 to 1 µM; at human D2R/β-arrestin [3], less than 0.1 µM.
Regarding `CC1(O)CCN(CCOc2ccccc2C(F)(F)F)CC1` [Compound 124, 4-Methyl-1-(2-(2-(trifluoromethyl)phenoxy)ethyl)piperidin-4-ol], the IC50 is 0.1 to 1 µM at human D2R/β-arrestin [1] and less than 0.1 µM against human D2R/β-arrestin [4]. Also, the EC50 at human D2R/β-arrestin [2] and on human D2R/β-arrestin [3] was greater than 30 µM in each case.
As to `CC1(OCc2ccccc2)CCN(CCOc2ccccc2C(F)(F)F)CC1` [Compound 126, 4-(Benzyloxy)-4-methyl-1-(2-(2-(trifluoromethyl)phenoxy)ethyl) piperidine], the IC50 at human D2R/β-arrestin [1] and at human D2R/β-arrestin [4] was less than 0.1 µM each time. The EC50 at human D2R/β-arrestin [2] and at human D2R/β-arrestin [3] was greater than 30 µM throughout.
As for `CC1(Oc2ccc(Cl)cc2)CCN(CCOc2ccc3ncoc3c2)CC1` [Compound 127, 6-(2-(4-(4-chlorophenoxy)-4-methylpiperidin-1-yl)ethoxy)benzo[d] oxazole], the IC50 is 1 to 10 µM at human D2R/β-arrestin [1] and greater than 30 µM on human D2R/β-arrestin [4]. Besides, the EC50 was 0.1 to 1 µM at human D2R/β-arrestin [2] and less than 0.1 µM on human D2R/β-arrestin [3].
On to `CC1(Oc2ccc(Cl)cc2)CCN(CCOc2cnccc2C(F)(F)F)CC1` [Compound 128, 3-(2-(4-(4-chlorophenoxy)-4-methylpiperidin-1-yl)ethoxy)-4-(trifluoromethyl)pyridine], for which the IC50 against human D2R/β-arrestin [1] was 1 to 10 µM; against human D2R/β-arrestin [4], 0.1 to 1 µM. Further, the EC50 on human D2R/β-arrestin [2] was greater than 30 µM; on human D2R/β-arrestin [3], 1 to 10 µM.
With `CC1(Oc2ccc(Cl)cc2)CCN(CC(=O)Nc2ccccc2C(F)(F)F)CC1` [Compound 129, 2-(4-(4-chlorophenoxy)-4-methylpiperidin-1-yl)-N-(2-(trifluoromethyl)phenyl)acetamide], the IC50 against human D2R/β-arrestin [1] and against human D2R/β-arrestin [4] was greater than 30 µM throughout. Also, the EC50 on human D2R/β-arrestin [2] and at human D2R/β-arrestin [3] was greater than 30 µM each time.
Consider `CC1(O)CCN(CCOc2ccccc2)CC1` [Compound 130, 4-Methyl-1-(2-phenoxyethyl)piperidin-4-ol], for which the results for the IC50 against human D2R/β-arrestin [1] and on human D2R/β-arrestin [4] were 10 to 30 µM and greater than 30 µM, respectively. Besides, the EC50 on human D2R/β-arrestin [2] lay in the range of 1 to 10 µM; at human D2R/β-arrestin [3], 0.1 to 1 µM.
The like results for `CC1(O)CCN(CCOc2ccccc2F)CC1` [Compound 131, 1-(2-(2-fluorophenoxy)ethyl)-4-methylpiperidin-4-ol] were, in that order, 1 to 10 µM, greater than 30 µM, 0.1 to 1 µM and less than 0.1 µM.
On to `CC1(O)CCN(CCOc2ccc(C(F)(F)F)cc2)CC1` [Compound 132, 4-methyl-1-(2-(4-(trifluoromethyl)phenoxy)ethyl)piperidin-4-ol], for which the figures for the 50% inhibitory concentration (IC50) against human D2R/β-arrestin [1] and against human D2R/β-arrestin [4] were 10 to 30 µM and 1 to 10 µM, respectively. Also, the EC50 at human D2R/β-arrestin [2] and on human D2R/β-arrestin [3] was greater than 30 µM in each case.
Take `C[C@]1(O)C[C@H]2CC[C@@H](C1)N2CCOc1ccccc1C(F)(F)F` [Compound 133, 3-methyl-8-(2-(2-(trifluoromethyl)phenoxy)ethyl)-8-azabicyclo[3.2.1] octan-3-ol]: the IC50 against human D2R/β-arrestin [1] and against human D2R/β-arrestin [4] was 0.1 to 1 µM each time. The EC50 on human D2R/β-arrestin [2] and on human D2R/β-arrestin [3] was greater than 30 µM throughout.
With `CC1(O)CCCN(CCOc2ccccc2C(F)(F)F)C1` (stereo not drawn) [Compound 134, 3-Methyl-1-(2-(2-(trifluoromethyl)phenoxy)ethyl)piperidin-3-ol], the IC50 lay in the range of 10 to 30 µM against human D2R/β-arrestin [1] and 1 to 10 µM against human D2R/β-arrestin [4]. Moreover, the EC50 on human D2R/β-arrestin [2] and at human D2R/β-arrestin [3] was greater than 30 µM throughout.
Regarding `FC(F)(F)c1ccccc1OCCN1CCC2(CC1)CCN2c1ccc(Cl)cc1` [Compound 136, 1-(4-Chlorophenyl)-7-(2-(2-(trifluoromethyl)phenoxy)ethyl)-1,7-diazaspiro[3.5]nonane], the figures for the IC50 at human D2R/β-arrestin [1] and at human D2R/β-arrestin [4] were 0.1 to 1 µM and less than 0.1 µM, respectively. Moreover, the EC50 on human D2R/β-arrestin [2] and at human D2R/β-arrestin [3] was greater than 30 µM in each case.
Regarding `CC1(O)CCN(CCCOc2ccccc2C(F)(F)F)CC1` [Compound 138, 4-methyl-1-(3-(2-(trifluoromethyl)phenoxy)propyl)piperidin-4-ol], the IC50 on human D2R/β-arrestin [1] and at human D2R/β-arrestin [4] was 0.1 to 1 µM in each case. The EC50 on human D2R/β-arrestin [2] and at human D2R/β-arrestin [3] was greater than 30 µM in each case.
Regarding `CC1(O)CCN(CCOc2ccccc2C(F)(F)F)C1` (stereo not drawn) [Compound 139, 3-Methyl-1-(2-(2-(trifluoromethyl)phenoxy)ethyl)pyrrolidin-3-ol], the IC50 at human D2R/β-arrestin [1] and against human D2R/β-arrestin [4] was 1 to 10 µM each time. Also, the EC50 at human D2R/β-arrestin [2] and at human D2R/β-arrestin [3] was greater than 30 µM in each case.
For the compound `CC1(Oc2ccccc2)CCN(CCOc2ccccc2S(C)(=O)=O)CC1` [Compound 141, 4-methyl-1-(2-(2-(methylsulfonyl)phenoxy)ethyl)-4-phenoxypiperidine], the IC50 against human D2R/β-arrestin [1] and on human D2R/β-arrestin [4] was 0.1 to 1 µM each time. Also, the EC50 is greater than 30 µM at human D2R/β-arrestin [2] and 1 to 10 µM on human D2R/β-arrestin [3].
Take `CC1(Oc2ccc(Cl)cc2)CCN(CC2COc3ccccc3O2)CC1` (stereo not drawn) [Compound 142, 4-(4-chlorophenoxy)-1-((2,3-dihydrobenzo[b][1,4]dioxin-2-yl)methyl)-4-methylpiperidine]: the IC50 on human D2R/β-arrestin [1] and on human D2R/β-arrestin [4] was greater than 30 µM in each case. Further, the EC50 on human D2R/β-arrestin [2] is 0.1 to 1 µM; on human D2R/β-arrestin [3] it was less than 0.1 µM.
As to `CC1(Oc2ccc(Cl)cc2)CCN(CCOC2CCCCC2)CC1` [Compound 143, 4-(4-chlorophenoxy)-1-(2-(cyclohexyloxy)ethyl)-4-methylpiperidine], the values for the IC50 against human D2R/β-arrestin [1] and against human D2R/β-arrestin [4] were 10 to 30 µM and greater than 30 µM, respectively. The results for the EC50 on human D2R/β-arrestin [2] and at human D2R/β-arrestin [3] were greater than 30 µM and 10 to 30 µM, respectively.
Consider `Clc1ccc2c(c1)C[C@@H]1CN(CCOc3ccccc3)C[C@H]1O2` [Compound 145, (3aS,9aR)-7-chloro-2-(2-phenoxyethyl)-1,2,3,3a,9,9a-hexahydrochromeno[2,3-c]pyrrole], for which the IC50 on human D2R/β-arrestin [1] is 10 to 30 µM; against human D2R/β-arrestin [4], 0.1 to 1 µM. For the same compound, the EC50 on human D2R/β-arrestin [2] and on human D2R/β-arrestin [3] was greater than 30 µM throughout.
For the compound `CC1(Oc2ccc(Cl)cc2)CCN(CCOc2ccccc2OC(F)(F)F)CC1` [Compound 146, 4-(4-chlorophenoxy)-4-methyl-1-(2-(2-(trifluoromethoxy)phenoxy)ethyl) piperidine], the IC50 against human D2R/β-arrestin [1] is 0.1 to 1 µM; against human D2R/β-arrestin [4], greater than 30 µM. Also, the EC50 on human D2R/β-arrestin [2] and on human D2R/β-arrestin [3] was 0.1 to 1 µM in each case.
Consider `CC1(Oc2ccc(Cl)cc2)CCN(CCOc2ccc(C(F)(F)F)nc2)CC1` [Compound 147, 5-(2-(4-(4-chlorophenoxy)-4-methylpiperidin-1-yl)ethoxy)-2-(trifluoromethyl)pyridine], for which the IC50 against human D2R/β-arrestin [1] and against human D2R/β-arrestin [4] was greater than 30 µM throughout. Further, the EC50 on human D2R/β-arrestin [2] and on human D2R/β-arrestin [3] was less than 0.1 µM throughout.
`CC1(Oc2ccc(Cl)cc2)CCN(CCOc2ccc(C(F)(F)F)cn2)CC1` [Compound 148, 2-(2-(4-(4-chlorophenoxy)-4-methylpiperidin-1-yl)ethoxy)-5-(trifluoromethyl) pyridine]: the IC50 on human D2R/β-arrestin [1] and against human D2R/β-arrestin [4] was greater than 30 µM in each case. The EC50 was greater than 30 µM on human D2R/β-arrestin [2] and 10 to 30 µM on human D2R/β-arrestin [3].
In the case of `CC1(Oc2ccc(Cl)cc2)CCN(CCOc2ccc(F)cc2)CC1` [Compound 149, 4-(4-chlorophenoxy)-1-(2-(4-fluorophenoxy)ethyl)-4-methylpiperidine], the IC50 is 1 to 10 µM against human D2R/β-arrestin [1] and greater than 30 µM against human D2R/β-arrestin [4]. Moreover, the EC50 is 0.1 to 1 µM on human D2R/β-arrestin [2] and less than 0.1 µM on human D2R/β-arrestin [3].
Take `Cc1ccc(OCCN2CCC(C)(Oc3ccc(Cl)cc3)CC2)cc1` [Compound 150, 4-(4-chlorophenoxy)-4-methyl-1-(2-(p-tolyloxy)ethyl)piperidine]: the IC50 on human D2R/β-arrestin [1] and at human D2R/β-arrestin [4] was greater than 30 µM in each case. In addition, the EC50 at human D2R/β-arrestin [2] was 0.1 to 1 µM; on human D2R/β-arrestin [3], less than 0.1 µM.
As to `CC1(Oc2ccc(Cl)cc2)CCN(CCOc2ccc(Cl)cc2)CC1` [Compound 151, 4-(4-chlorophenoxy)-1-(2-(4-chlorophenoxy)ethyl)-4-methylpiperidine], the IC50 on human D2R/β-arrestin [1] and at human D2R/β-arrestin [4] was greater than 30 µM each time. The EC50 was 0.1 to 1 µM at human D2R/β-arrestin [2] and less than 0.1 µM on human D2R/β-arrestin [3].
